Read-outs that look alike come from different tables or passages of the source. Where a SMILES comes first, the peptide text is derived from it. Where no end group is shown, it is not given here.
How the values were obtained:
[1] = biological target: HLA-DRB1*0401 (Homo sapiens, UniProt P01903+P01911, A100K/A169T/F76Y/I96L/K127E/L162R/M171V/N62H/P40V/Q125Y/R42H/S133A/S149N/S66Y/V115G/V209L/W38E); experiment: solid-state competitive-binding assay, purified HLA-DR4
[2] = test system: CD4+ T cells; experiment: IFN-γ ELISPOT, freshly-isolated peripheral blood CD4+ T cells vs peptide-pulsed T2.DR4; type: cell-based, human; details: positive if above normal donor mean + 3 S.D.; for T cell responses evaluated in MEL (of 5): number of responding patients: HLA-DR4+ melanoma patients with active disease, n = 5, 20 h IFN-γ ELISPOT; for T cell responses evaluated in MEL-NED (of 11): number of responding patients: HLA-DR4+ melanoma patients with no evidence of disease, n = 11, 20 h IFN-γ ELISPOT
[3] = test system: CD4+ T cells; experiment: IFN-γ ELISPOT, normal donor CD4+ T cells after in vitro stimulation with peptide-pulsed autologous DC; type: cell-based, human; details: for T cell responses evaluated in ND-IVS (of 10): number of responding normal donors: normal HLA-DR4+ donors, n = 10, after 2 rounds of in vitro stimulation with autologous DC pulsed with peptide, IFN-γ ELISPOT
[4] = biological target: HLA-DRB1*0404 (Homo sapiens, UniProt P01903+P01911, A100R/A169T/F76Y/I96L/K127E/L162R/M171V/N62H/P40V/Q125Y/R42H/S133A/S149N/S66Y/V209L/W38E); experiment: solid-state competitive-binding assay, purified HLA-DR4
[5] = read-out: Binding affinity (IC50) DRB1*0401
[6] = read-out: Binding affinity (IC50) DRB1*0404

Row | Compound | IC50 [1, 5] [µM] | T cell responses evaluated in MEL (of 5): number of responding patients [2] | T cell responses evaluated in MEL-NED (of 11): number of responding patients [2] | T cell responses evaluated in ND-IVS (of 10): number of responding normal donors [3] | other results
1 | CC(C)[C@H](NC(=O)[C@H](CO)NC(=O)[C@@H]1CCCN1C(=O)[C@@H](N)Cc1c[nH]c2ccccc12)C(=O)N[C@@H](Cc1ccccc1)C(=O)N[C@@H](Cc1ccc(O)cc1)C(=O)N[C@@H](CC(N)=O)C(=O)N[C@@H](CCCNC(=N)N)C(=O)N[C@H](C(=O)N[C@@H](CS)C(=O)N[C@@H](CCC(N)=O)C(=O)N[C@@H](CS)C(=O)N[C@@H](CO)C(=O)NCC(=O)N[C@@H](CC(N)=O)C(=O)N[C@@H](Cc1ccccc1)C(=O)O)[C@@H](C)O [tyrosinase80-95] (H-WPSVFYNRTCQCSGNF-OH; N-terminus and C-terminus assumed) | – | 0 patients (of 5) | 0 patients (of 11) | 0 donors (of 10) | –
2 | ALHIYMDGTMSQVQGSA [tyrosinase365-381D] | – | – | – | – | IC50 [4]: 0.031 µM; IC50 [1]: 0.017 µM
3 | KRCLLHLAVIGALLAVGATKV [gp100/pmel176-26] | > 10 | – | – | – | –
4 | PGPVTAQVVLQAAIPLTSCGSS [gp100/pmel17283-304] | – | – | – | – | IC50 [4, 6]: 0.051 µM
5 | VSGLSIGTGRAMLGTHTMEVTVY [gp100/pmel17167-189] | > 10 | – | – | – | –
6 | VYVWKTWGQYWQVLGGPVS [gp100/pmel17150-168] | – | 0 patients (of 5) | 0 patients (of 11) | 0 donors (of 10) | IC50 [4]: > 10 µM; IC50 [1]: > 10 µM
7 | WMHYYVSMDALLGGSEI [tyrosinase178-194, synthetic peptide derived from tyrosinase] | – | 1 patients (of 5) | 1 patients (of 11) | 3 donors (of 10) | immunogen grade on an arbitrary scale ([3]; in both melanoma patients and in vitro stimulated normal donors, weak / moderate / strong): moderate

Further lines, with some results ahead:

Row | IC50 [1, 5] [µM] | Compound | T cell responses evaluated in MEL (of 5): number of responding patients [2] | T cell responses evaluated in MEL-NED (of 11): number of responding patients [2] | T cell responses evaluated in ND-IVS (of 10): number of responding normal donors [3] | other results
8 | > 10 | CC[C@H](C)[C@H](NC(=O)[C@H](CCC(N)=O)NC(=O)[C@H](Cc1c[nH]cn1)NC(=O)[C@H](CC(C)C)NC(=O)[C@@H](NC(=O)[C@H](CC(C)C)NC(=O)[C@H](CCC(N)=O)NC(=O)[C@H](CS)NC(=O)[C@H](C)NC(=O)[C@@H]1CCCN1C(=O)[C@H](CO)NC(=O)[C@@H]1CCCN1C(=O)[C@H](CC(C)C)NC(=O)[C@@H](NC(=O)[C@@H]1CCCN1C(=O)[C@H](CCC(N)=O)NC(=O)[C@H](CS)NC(=O)[C@@H](N)CC(C)C)C(C)C)C(C)C)C(=O)N[C@@H](CC(C)C)C(=O)N[C@@H](CCCCN)C(=O)NCC(=O)NCC(=O)O [gp100/pmel17540-561] (H-LCQPVLPSPACQLVLHQILKGG-OH) | – | – | – | –
9 | > 10 | IVGILLVLMAVVLASLIYRRR [gp100599-619 /pmel17606-626] | 0 patients (of 5) | 0 patients (of 11) | 0 donors (of 10) | IC50 [4, 6]: > 10 µM

Source: PMC2363969, “gp100/pmel17 and tyrosinase encode multiple epitopes recognized by Th1-type CD4+T cells” (British Journal of Cancer, 2001)
